Source: ChEMBL document CHEMBL4706659, “Design, synthesis and biological evaluation of novel 2,4-diaryl pyrimidine derivatives as selective EGFR inhibitors” (Eur J Med Chem, 2021)

Experiments:
[1] = Cytotoxicity against HEK293-A cells assessed as reduction in cell viability by MTT assay; assay type: cell-based; settings: Homo sapiens
[2] = test system: NCI-H1975; experiment: Induction of apoptosis in human NCI-H1975 cells harboring EGFR T790M/L858R mutant assessed as viable cells at 1 nM measured after 48 hrs by Annexin-V-FITC/propidium iodide staining based flow cytometry (reference value: 98.63%); assay type: functional; settings: read-out: Activity
[3] = test system: NCI-H1975; experiment: Induction of apoptosis in human NCI-H1975 cells harboring EGFR T790M/L858R mutant assessed as viable cells at 5 nM measured after 48 hrs by Annexin-V-FITC/propidium iodide staining based flow cytometry (reference value: 98.63%); assay type: functional; settings: read-out: Activity
[4] = test system: NCI-H1975; experiment: Induction of apoptosis in human NCI-H1975 cells harboring EGFR T790M/L858R mutant assessed as necrotic cells at 10 nM measured after 48 hrs by Annexin-V-FITC/propidium iodide staining based flow cytometry (reference value: […]); assay type: functional

C=CC(=O)Nc1cc(Nc2nccc(-c3cn(C4CC4)c4ccccc34)n2)c(OC)cc1[S+]([O-])CCN(C)C (centres undefined)
IC50 [1]: 3.06 µM | viability at 0.001 µM [2]: 82% | viability at 0.005 µM [3]: 68.2% | Activity [4]: 21.2%
